How the values were obtained:
Format in all cases: biochemical
[1] = system: Bst DNA polymerase, Taq DNA polymerase, MMLV-RT; experiment: Polymerase extension of 32P-labeled 12-mer primer on synthetic 30-mer template to full-length product; conditions: all three polymerases
Experimental: The ability of the Bacillus sterothermophilus (Bst) DNA polymerase (New England Biolabs), the Thermus aquaticus (Taq) DNA polymerase (Amersham) and the Moloney Murine Leukemia Virus reverse transcriptase (MMLV-RT) (Amersham) to incorporate the 2-amino-2′-deoxyadenosine-5′-triphosphate and 2-thiothymidine-5′-triphosphate into polynucleotides was tested using a synthetic 30-mer template and ^32P-labeled 12-mer primer (S.A. 130 Ci/mmol). (FIG. 2A). Extension reactions for each polymerase were performed in 0.65 ml pre-siliconized microfuge tubes containing the following components: (Bst) 20 mM Tris-Cl (pH 8.8 @ 25° C.), 10 mM KCl, 10 mM (NH4)2SO4, 2 mM MgSO4, 0.1% Triton-X100, 0.5 microM primer/template, 250 microM each dNTP and 0.15 units/microL Bst DNA polymerase; (Taq) 26 mM Tris-Cl (pH 9.5 @25° C.), 6.5 mM MgCl2, 0.5 microM primer/template, 250 microM each dNTP and 0.15 units/microL Taq DNA polymerase; (MMLV-RT) 50 mM Tris-Cl (pH 8.3 @ 25° C.) 75 mM KCl, 3 mM MgCl2, […], 0.5 microM primer/template, 250 microM each dNTP and 0.5 units/microL MMLV-RT. The reactions were incubated for 15 minutes at 65° C. for the Bst and Taq reactions and 42° C. for the MMLV-RT reaction. The reaction mixtures were separated by electrophoresis on 10% denaturing (7M urea) polyacrylamide gels and visualized by phosphorimaging methods.

Bst DNA polymerase = molecular target: T1, Bst DNA polymerase (Geobacillus stearothermophilus, UniProt P52026); experiment: Single nucleotide extension of 6-mer primers at varying dNTP concentration; conditions: for extension efficiency of 6-mer primer compared with natural dNTP: dNTP 0.5 microM to 130 microM, 45° C., 8 hours
T1 construct: purchased New England Biolabs
T1 sequence (P52026 290-876 limits assumed): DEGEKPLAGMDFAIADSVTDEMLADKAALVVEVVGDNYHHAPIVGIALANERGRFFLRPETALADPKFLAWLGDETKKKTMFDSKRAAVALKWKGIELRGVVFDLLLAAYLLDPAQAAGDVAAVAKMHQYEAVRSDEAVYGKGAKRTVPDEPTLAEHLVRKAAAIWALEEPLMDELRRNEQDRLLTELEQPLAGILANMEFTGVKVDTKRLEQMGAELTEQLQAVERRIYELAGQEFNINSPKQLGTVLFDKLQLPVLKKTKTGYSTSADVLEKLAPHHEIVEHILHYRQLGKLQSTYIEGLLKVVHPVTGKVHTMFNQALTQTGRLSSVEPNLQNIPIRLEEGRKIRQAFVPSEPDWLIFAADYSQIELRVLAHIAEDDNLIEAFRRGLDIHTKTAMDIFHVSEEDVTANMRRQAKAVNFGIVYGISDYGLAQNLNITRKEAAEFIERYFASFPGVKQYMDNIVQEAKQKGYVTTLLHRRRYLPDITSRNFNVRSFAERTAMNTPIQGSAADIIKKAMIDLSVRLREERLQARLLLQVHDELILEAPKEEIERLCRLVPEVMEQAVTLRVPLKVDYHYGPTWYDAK
Experimental: To further assess the incorporation efficiency of the modified nucleotides by Bst DNA polymerase, the efficiency for a single nucleotide extension reaction was determined using two 6-mer primers in the presence of varying concentrations of dATP, 2-amino-2′-deoxyadenosine-5′-triphosphate, dTTP or 2-thiothymidine-5′-triphosphate (illustrated as 2-thioTTP) (FIGS. 3A and 4A). For this study, the reaction mixtures contained: 20 mM Tris-Cl (pH 8.8 @ 25° C.), 10 mM KCl, 10 mM (NH4)2SO4, 2 mM MgSO4, 0.1% Triton-X100, 500 nanoM 6-mer primer, 20 nanoM 30-mer DNA template, 0.8 units/microL (˜70 nanoM) Bst DNA polymerase and a dNTP concentration ranging from 0.5 microM to 130 microM. The reaction mixtures were incubated at 45° C. for 8 hours and separated by electrophoresis on 20% denaturing (7M urea) polyacrylamide gels.

[2] = molecular target: T2, SuperScript II MMLV reverse transcriptase (Moloney murine leukemia virus, UniProt P03355, D1183G/D1242N/E1221Q); experiment: Synthesis of fluorescently labeled cUNA from pBp-1 T7-RNA template with dCTP-Cy5; conditions: substituted for dATP and TTP; one hour
T2 construct: 200 units of SuperScript II MMLV reverse transcriptase (InVitrogen); purchased InVitrogen
Experimental: The ability to generate fluorescently labeled cUNAs was tested using the pBp-1 T7-RNA template and dCTP-Cy5 fluorescently labeled nucleotide analogue (Perkin-Elmer/NEN). The reverse transcriptase reactions (10.0 uL) were performed in 0.65 mL pre-siliconized microfuge tubes containing the following components: 50 mM Tris-Cl (pH 8.3), 75 mM KCl, 3.0 mM MgCl2, 4.5 mM DTT, 500 uM dGTP (or dITP), 500 uM dATP (or 2-amino-2′-deoxyadenosine-5′-triphosphate), 500 uM TTP (or 2-thiothymidine-5′-triphosphate), the indicated amounts of dCTP and dCTP-Cy5, 40 nM pBp-1 RNA template, 1.0 uM T16N2 primer, 1.0 unit of RNase Out (In Vitrogen), and 100 units of SuperScript II MMLV reverse transcriptase (In Vitrogen). The buffer components, RNA template, and primer were annealed by heating to 75° C. for 4 minutes and quickly cooled to room temperature. The dNTPs and RNase inhibitor were then added and the reactions were initiated by the addition of the reverse transcriptase and incubated at 42° C. At one and three hours, 5.0 uL aliquots were removed, mixed with 0.07 ug of RNase A, and incubated at room temperature for 30 minutes. The ribonucleased reaction mixtures were quenched with EDTA and 8 M urea and separated by electrophoresis on 5% polyacrylamide gels (19:1) containing 1×TBE and 9M urea. The fluorescently-labeled products were visualized using a phosphorimager.

SMILES	full-length product when both analogues are substituted for A and T in a single reaction mixture [1]	EC50 (Bst DNA polymerase)	extension efficiency of 6-mer primer compared with natural dNTP (Bst DNA polymerase)	full-length fluorescently-labeled product [2]
Cc1cn([C@H]2C[C@H](O)[C@@H](COP(=O)(O)OP(=O)(O)OP(=O)(O)O)O2)c(=S)[nH]c1=O [2-thiothymidine-5′-triphosphate]	full-length product was generated	~6 µM	very similar	full-length fluorescently-labeled product is generated
Nc1nc(N)c2ncn([C@H]3C[C@H](O)[C@@H](COP(=O)(O)OP(=O)(O)OP(=O)(O)O)O3)c2n1 [2-amino-2′-deoxyadenosine-5′-triphosphate]	full-length product was generated	–	approximately equal efficiencies	full-length fluorescently-labeled product is generated
